# Measurements published in US20210221866A1, “PROTEASE-RESISTANT LIPIDATED GLP-1 ANALOGS” (MEDIMMUNE LIMITED, priority 2015, published 2021).
# Like-named read-outs stand apart in the source and are kept apart here. Numbered stars: 1 amine (or outer) side, 2 acyl side, 3 side chain; on linkers, the order of the positions; unused ones are H or OH. Square brackets hold non-standard residues; d marks the D form. Side chains are listed from the residue outwards. Peptide text beside a SMILES is read from it. * marks the point of attachment. γGlu = O=C(O)[C@H](CCC(=O)[*:2])N[*:1]; αMeF = C[C@](N)(Cc1ccccc1)C(=O)O; αMeK = C[C@](N)(CCCCN)C(=O)O; Lauroyl = CCCCCCCCCCCC(=O)*; αMeS = C[C@](N)(CO)C(=O)O; AEEA = NCCOCCOCC(=O)O; Aib = CC(C)(N)C(=O)O
# How the values were obtained:
# Format in all cases: cell-based
# [1] = target: T1, human GLP-1 receptor (GLP-1R) (Homo sapiens, UniProt P43220); test: cAMP assay, human GLP-1R cells
# T1 construct: expressed in transfected cells; host or cells: HEK293 cells or CHO cells
# T1 sequence (P43220 24-463): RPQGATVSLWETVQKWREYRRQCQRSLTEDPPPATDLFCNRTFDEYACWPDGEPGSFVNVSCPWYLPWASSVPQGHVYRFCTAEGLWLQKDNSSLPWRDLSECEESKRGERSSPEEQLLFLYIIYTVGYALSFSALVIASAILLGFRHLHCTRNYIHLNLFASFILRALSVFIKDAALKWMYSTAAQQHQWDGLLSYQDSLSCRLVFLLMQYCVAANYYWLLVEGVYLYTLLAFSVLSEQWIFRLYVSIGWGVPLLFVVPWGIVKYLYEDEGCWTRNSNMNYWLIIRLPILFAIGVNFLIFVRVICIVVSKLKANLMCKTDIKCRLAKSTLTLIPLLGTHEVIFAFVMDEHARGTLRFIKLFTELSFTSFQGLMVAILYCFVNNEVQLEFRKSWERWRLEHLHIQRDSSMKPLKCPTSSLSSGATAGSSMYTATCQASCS
# How it was run: (§1)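 Peptide-stimulated cAMP measured by two-step HTRF after a 30 min room-temperature incubation with receptor-expressing cells (hGLP-1R, hGIPR at 1×10^5 cells/ml; hGCGR at 2×10^5 cells/ml). Duplicate dilutions; EC50 from 4-parameter logistic fit of % Delta F.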
# [2] = target: T2, human glucagon receptor (GCGR) (Homo sapiens, UniProt P47871); test: cAMP assay, human GCGR cells; details: Table 9, bis-lipidated peptides
# T2 construct: expressed in transfected cells; host or cells: HEK293 cells or CHO cells
# T2 sequence (P47871 26-477): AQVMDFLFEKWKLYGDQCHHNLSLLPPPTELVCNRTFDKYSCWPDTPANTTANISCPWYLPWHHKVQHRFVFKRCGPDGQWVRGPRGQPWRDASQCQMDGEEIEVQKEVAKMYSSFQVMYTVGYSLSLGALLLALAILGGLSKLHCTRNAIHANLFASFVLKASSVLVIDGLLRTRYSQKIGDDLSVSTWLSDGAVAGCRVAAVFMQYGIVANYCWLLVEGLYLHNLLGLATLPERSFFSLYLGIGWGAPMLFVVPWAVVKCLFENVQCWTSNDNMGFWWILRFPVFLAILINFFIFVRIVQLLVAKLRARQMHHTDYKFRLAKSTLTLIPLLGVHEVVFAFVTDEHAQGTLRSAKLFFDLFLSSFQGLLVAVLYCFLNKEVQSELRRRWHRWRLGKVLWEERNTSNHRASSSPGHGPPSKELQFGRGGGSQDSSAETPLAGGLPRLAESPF
# How it was run: as §1
# [3] = target: T3, human glucose-dependent insulinotropic peptide receptor (GIPR) (Homo sapiens, UniProt P48546); test: cAMP assay, human GIPR cells; details: Table 9, bis-lipidated peptides
# T3 construct: expressed in transfected cells; host or cells: HEK293 cells or CHO cells
# T3 sequence (P48546 22-466): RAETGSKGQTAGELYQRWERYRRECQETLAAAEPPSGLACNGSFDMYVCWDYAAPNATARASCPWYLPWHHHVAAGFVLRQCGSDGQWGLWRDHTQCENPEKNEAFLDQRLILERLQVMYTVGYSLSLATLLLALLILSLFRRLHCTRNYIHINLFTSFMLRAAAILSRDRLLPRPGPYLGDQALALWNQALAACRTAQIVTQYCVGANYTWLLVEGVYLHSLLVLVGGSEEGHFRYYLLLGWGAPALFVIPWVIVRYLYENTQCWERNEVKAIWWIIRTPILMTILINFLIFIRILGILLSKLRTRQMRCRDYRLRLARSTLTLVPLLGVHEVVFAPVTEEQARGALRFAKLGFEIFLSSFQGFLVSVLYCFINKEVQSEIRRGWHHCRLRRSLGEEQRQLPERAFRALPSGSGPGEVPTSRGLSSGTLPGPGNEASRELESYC
# How it was run: as §1
# [4] = target: T4, GLP-1R (INS1e cells) (Rattus norvegicus, UniProt P32301); test: INS1e assay, cAMP activity at GLP-1R
# T4 construct: endogenous in cells; host or cells: INS1e cells
# T4 sequence (P32301 22-463): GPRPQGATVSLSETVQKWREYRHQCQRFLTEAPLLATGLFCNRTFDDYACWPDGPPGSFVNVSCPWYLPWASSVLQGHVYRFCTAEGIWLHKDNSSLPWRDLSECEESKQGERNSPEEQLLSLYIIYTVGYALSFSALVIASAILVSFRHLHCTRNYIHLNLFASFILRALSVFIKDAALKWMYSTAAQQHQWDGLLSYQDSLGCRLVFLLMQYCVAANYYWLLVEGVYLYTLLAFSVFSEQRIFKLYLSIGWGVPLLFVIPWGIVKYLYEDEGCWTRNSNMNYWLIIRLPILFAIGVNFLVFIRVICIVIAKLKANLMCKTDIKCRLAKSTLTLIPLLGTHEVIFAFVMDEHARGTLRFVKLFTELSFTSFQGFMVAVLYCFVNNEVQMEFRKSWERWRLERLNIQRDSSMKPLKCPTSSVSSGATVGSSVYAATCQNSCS
"EC50 ([1]; Table 9, bis-lipidated peptides, mean of n1 and n2, read-out: Primary assay EC50 Mean pM GLP-1R)","EC50 ([1]; Table 9, bis-lipidated peptides, replicate n1, read-out: Primary assay EC50 GLP-1R n1)","EC50 ([1]; Table 9, bis-lipidated peptides, replicate n2, read-out: Primary assay EC50 GLP-1R n2)","EC50 ([2]; first replicate, read-out: Primary assay EC50 Gluc-R (n1))","EC50 ([2]; second replicate, read-out: Primary assay EC50 Gluc-R (n2))","EC50 ([3]; first replicate, read-out: Primary assay EC50 GIP-R (n1))","EC50 ([3]; second replicate, read-out: Primary assay EC50 GIP-R (n2))","EC50 ([4]; Table 10, bis-lipidated peptides, mean of n1 and n2, read-out: INS1e assay EC50 Mean pM GLP-1R)","EC50 ([4]; Table 10, bis-lipidated peptides, replicate n1, read-out: INS1e assay EC50 GLP-1R n1)","EC50 ([4]; Table 10, bis-lipidated peptides, replicate n2, read-out: INS1e assay EC50 GLP-1R n2)","EC50 ([1]; cAMP activity, mean of n1 and n2, read-out: Mean pM GLP-1R)","EC50 ([4]; Table 8, substituted and mono-lipidated peptides, mean of n1 and n2, read-out: INS1e assay EC50 Mean pM GLP-1R)",SMILES
12.8 pM,18.2 pM,7.37 pM,≥ 22.6 nM,≥ 22.6 nM,≥ 22.6 nM,≥ 22.6 nM,1030 pM,963 pM,1100 pM,–,–,CCCCCCCCCCCC(=O)N[C@@H](CCC(=O)NCCOCCOCC(=O)NCCOCCOCC(=O)NCCCC[C@H](NC(=O)[C@H](CO)NC(=O)[C@](C)(CO)NC(=O)[C@@H](NC(=O)[C@H](CC(=O)O)NC(=O)[C@H](CO)NC(=O)[C@@H](NC(=O)[C@](C)(Cc1ccccc1)NC(=O)[C@H](CO)NC(=O)CNC(=O)[C@H](CCC(=O)O)NC(=O)C(C)(C)NC(=O)[C@@H](N)Cc1c[nH]cn1)[C@@H](C)O)C(C)C)C(=O)N[C@@H](CC(C)C)C(=O)N[C@@H](CCC(=O)O)C(=O)NCC(=O)N[C@@H](CCC(=O)O)C(=O)N[C@@H](C)C(=O)N[C@@H](C)C(=O)N[C@@](C)(CCCCN)C(=O)N[C@@H](CCC(=O)O)C(=O)N[C@@H](Cc1ccccc1)C(=O)N[C@H](C(=O)N[C@@H](C)C(=O)N[C@@H](Cc1c[nH]c2ccccc12)C(=O)N[C@@H](CCCCNC(=O)COCCOCCNC(=O)COCCOCCNC(=O)CC[C@H](NC(=O)CCCCCCCCCCC)C(=O)O)C(=O)N[C@H](C(=O)N[C@@H](CCC(=O)O)C(=O)NCC(=O)NCC(N)=O)C(C)C)[C@@H](C)CC)C(=O)O [compound 264] (H-H[Aib]EGS[αMeF]TSDV[αMeS]SK([AEEA-AEEA-γGlu-Lauroyl])LEGEAA[αMeK]EFIAWK([AEEA-AEEA-γGlu-Lauroyl])VEGG-NH2; N-terminus assumed)
–,–,–,–,–,–,–,–,–,–,6.7 pM,455 pM,CC[C@H](C)[C@H](NC(=O)[C@](C)(Cc1ccccc1)NC(=O)[C@H](CCC(=O)O)NC(=O)[C@H](CCC(=O)O)NC(=O)[C@H](C)NC(=O)[C@H](C)NC(=O)[C@H](CCC(=O)O)NC(=O)CNC(=O)[C@H](CCC(=O)O)NC(=O)[C@H](CC(C)C)NC(=O)[C@](C)(Cc1ccccc1)NC(=O)[C@H](CO)NC(=O)[C@](C)(CO)NC(=O)[C@@H](NC(=O)[C@H](CC(=O)O)NC(=O)[C@H](CO)NC(=O)[C@@H](NC(=O)[C@](C)(Cc1ccccc1)NC(=O)[C@H](CO)NC(=O)CNC(=O)[C@H](CCC(=O)O)NC(=O)C(C)(C)NC(=O)[C@@H](N)Cc1c[nH]cn1)[C@@H](C)O)C(C)C)C(=O)N[C@@H](C)C(=O)N[C@@](C)(Cc1ccccc1)C(=O)N[C@H](C(=O)N[C@H](C(=O)N[C@@H](CCC(=O)O)C(=O)NCC(=O)NCC(N)=O)C(C)C)C(C)C [compound 44] (H-H[Aib]EGS[αMeF]TSDV[αMeS]S[αMeF]LEGEAAEE[αMeF]IA[αMeF]VVEGG-NH2)
